The values below are quoted from earlier work in patent US5480649A, “Procaterol-containing preparation for application to the skin” (Teikoku Seiaku Kabushiki Kaisha, priority 1990, dated 1996).

For this data set, the system named is β-receptor of sympathetic nerves. The following applies: background statement.

Bounds are passed on as bounds.

Consider `CCC(NC(C)C)C(O)c1ccc(O)c2[nH]c(=O)ccc12` (centres unmarked) [procaterol], for which the bronchodilating activity entry was “strong bronchodilating activity in very small amounts” and the “duration of the activity” value is at least 8 h.
